Read-outs that look alike come from different tables or passages of the source.
What was measured:
[1] = Rat oral pharmacokinetic study; type: in vivo, Sprague Dawley rats; details: Sprague Dawley, mean ± SD
Experimental: (§1) Sample Analysis. […] Before extraction, plasma samples were diluted using blank plasma at an appropriate dilution factor, as necessary, depending on the dose level. […] After centrifugation, the supernatant extract (10 μL) was injected onto the LC/MS/MS system. The HPLC system included a Phenomenex Synergy Kinetix C8 column, 2.6 micron, 2.0 mm diameter×75 mm long eluted with a gradient mobile phase consisting of 0.1% formic acid in water or in acetonitrile.
(§2) The analytes were detected by MS/MS with Electrospray Ionization (ESI) in the mode of multiple reaction monitoring (MRM). […] The intra-day and inter-day assay accuracy was within 20% of the nominal values. The intra- and inter-day assay variability was ≦20%.
(§3) Pharmacokinetic Data Analysis.
(§4) Key pharmacokinetic parameters such as AUCall, AUCextra, Cmax, tmax, Cl, Vss and t1/2 were determined.
(§5) Statistical Data Analysis. Descriptive statistical data of pharmacokinetic parameters were calculated, including the mean, standard deviation (SD), using Watson LIMS version 7.4 SP3 or Microsoft Excel 2000.
Groups of male and female Sprague Dawley rats (n=3 per dose group) were administered single nominal oral doses of 10, 100, 400, 640, 1000 mg/kg (for males) and 30, 100, 300, 640, 1000 mg/kg (for females) of compound 9 by gavage. Compound 9 was formulated in either 30% PEG400 and 10% TPGS in water or 5% TPGS, 5% PVP-K30 in 50 mM Citrate, pH 5. Animals had free access to food and water before and after dosing. Blood samples (approximately 0.25 mL each) were collected via a carotid artery catheter prior to dosing and at 0.25, 0.5, 1, 2, 4, 8, 12, 24, 48 and 72 hours post dose. Each blood sample was collected into a tube that was kept on wet ice and contained potassium EDTA as the anticoagulant. Plasma was separated and stored at approximately −70° C. until analysis.

Aqueous solubility study = type: physicochemical; details: for solubility at 24 h: thermodynamic from solid
Experimental: The aqueous solubility of compound 9 and 9a were determined according to the following procedure. Solubility data was determined at ambient conditions by equilibrating the compound with water on a shaking bed for 24 hours, followed by centrifugation and separation of the saturated solutions. The pH value of each media was measured before centrifugation, and the saturated solutions were assayed by HPLC.

[2] = Rat IV pharmacokinetic study; type: in vivo, Sprague Dawley rats; details: Sprague Dawley, male rat, single IV bolus 1 mg/kg of compound 9, DMI vehicle, analyte 9a in plasma; for AUC: male, rat, plasma, iv, 1 mg/kg
Experimental: as §1, §2, §3, §4, §5
Male Sprague Dawley rats (n=3) were administered a single nominal IV bolus dose of 1 mg/kg of compound 9 via a jugular vein cannula. […] Animals had free access to food and water before and after dosing. Blood samples (approximately 0.25 mL each) were collected via a carotid artery catheter prior to dosing and at 5 min, 10 min, 0.25, 0.5, 1, 2, 4, 8, 12, 24 hours post dose. Each blood sample was collected into a tube that was kept on wet ice and contained potassium EDTA as the anticoagulant. Plasma was separated and stored at approximately −70° C. until analysis.
Plasma concentration vs. time data were subjected to noncompartmental pharmacokinetic (PK) analysis.

[3] = female rat, single PO 30 mg/kg of compound 9, 5% TPGS/5% PVP-K30/50 mM Citrate pH 5, analyte 9a in plasma
[4] = female rat, single PO 100 mg/kg of compound 9, 5% TPGS/5% PVP-K30/50 mM Citrate pH 5, analyte 9a in plasma
[5] = female rat, single PO 300 mg/kg of compound 9, 5% TPGS/5% PVP-K30/50 mM Citrate pH 5, analyte 9a in plasma
[6] = female rat, single PO 640 mg/kg of compound 9, 5% TPGS/5% PVP-K30/50 mM Citrate pH 5, analyte 9a in plasma
[7] = female rat, single PO 1000 mg/kg of compound 9, 5% TPGS/5% PVP-K30/50 mM Citrate pH 5, analyte 9a in plasma
[8] = male rat, single PO 10 mg/kg of compound 9, 5% TPGS/5% PVP-K30/50 mM Citrate pH 5, analyte 9a in plasma
[9] = male rat, single PO 100 mg/kg of compound 9, 5% TPGS/5% PVP-K30/50 mM Citrate pH 5, analyte 9a in plasma
[10] = male rat, single PO 400 mg/kg of compound 9, 5% TPGS/5% PVP-K30/50 mM Citrate pH 5, analyte 9a in plasma
[11] = male rat, single PO 640 mg/kg of compound 9, 5% TPGS/5% PVP-K30/50 mM Citrate pH 5, analyte 9a in plasma
[12] = male rat, single PO 1000 mg/kg of compound 9, 5% TPGS/5% PVP-K30/50 mM Citrate pH 5, analyte 9a in plasma

Cc1cc(F)ccc1Oc1cc(C(F)(F)F)ccc1C(=O)Nc1cc[nH]c(=O)c1 [Compound 9a, 2-(4-fluoro-2-methylphenoxy)-N-(2-oxo-1,2-dihydropyridin-4-yl)-4-(trifluoromethyl)benzamide]
AUC [1, 3]: 99200 ± 6880 ng·h/mL | Cmax [1, 3]: 3330 ± 430 ng/mL | Tmax [1, 3]: 6.67 ± 2.31 h | half-life [1, 3]: 10.8 ± 1.6 h | AUC [1, 4]: 187000 ± 17500 ng·h/mL | Cmax [1, 4]: 5820 ± 580 ng/mL | Tmax [1, 4]: 12 h | half-life [1, 4]: 9.15 ± 0.44 h | AUC [1, 5]: 282000 ± 74200 ng·h/mL | Cmax [1, 5]: 7900 ± 1300 ng/mL | Tmax [1, 5]: 10.7 ± 2.31 h | half-life [1, 5]: 13.1 ± 2.65 h | AUC [1, 6]: 324000 ± 32800 ng·h/mL | Cmax [1, 6]: 10000 ± 1450 ng/mL | Tmax [1, 6]: 9.33 ± 2.31 h | half-life [1, 6]: 7.51 ± 1.86 h | AUC [1, 7]: 345000 ± 69600 ng·h/mL | Cmax [1, 7]: 10600 ± 3580 ng/mL | Tmax [1, 7]: 13.3 ± 9.24 h | half-life [1, 7]: 7.9 ± 3.37 h | AUC [1, 8]: 3600 ± 240 ng·h/mL | Cmax [1, 8]: 290 ± 50 ng/mL | Tmax [1, 8]: 5.33 ± 2.31 h | half-life [1, 8]: 3.8 ± 0.73 h | AUC [1, 9]: 24800 ± 4600 ng·h/mL | Cmax [1, 9]: 1670 ± 190 ng/mL | Tmax [1, 9]: 8 h | half-life [1, 9]: 5.36 ± 2.3 h | AUC [1, 10]: 68600 ± 25700 ng·h/mL | Cmax [1, 10]: 3740 ± 1250 ng/mL | Tmax [1, 10]: 5.67 ± 4.04 h | half-life [1, 10]: 5.2 ± 1.96 h | AUC [1, 11]: 74900 ± 24100 ng·h/mL | Cmax [1, 11]: 4760 ± 980 ng/mL | Tmax [1, 11]: 6 ± 3.46 h | half-life [1, 11]: 6.91 ± 1.84 h | AUC [1, 12]: 88500 ± 41000 ng·h/mL | Cmax [1, 12]: 4540 ± 910 ng/mL | Tmax [1, 12]: 6.67 ± 2.31 h | half-life [1, 12]: 7.95 ± 2.24 h | solubility at 24 h (Aqueous solubility study; aqueous medium, simulated gastric fluid, pH 1.2, crystalline, ambient conditions, 24 hours, read-out: Solubility): < 1 µg/mL | Solubility (Aqueous solubility study; pH 6.0, crystalline, ambient conditions, 24 hours): <1 µg/mL | solubility at 24 h (Aqueous solubility study; water, pH 6.0, read-out: aqueous solubility in water): < 1 µg/mL | C0 [2]: 259 ng/mL | clearance [2]: 18.7 mL/min/kg | Vd ([2]; read-out: Vss): 3.77 L/kg | half-life ([2]; read-out: t½ (converted)): 2.43 h | AUC ([2]; read-out: AUCall): 592 ng·h/mL | AUC ([2]; read-out: AUCextra): 611 ng·h/mL
